What was measured:
[1] = system: A549 (human lung cancer cells); assay: Anticancer activity, WST-8 viable cell assay, A549; type: cell-based; conditions: 48 hours culture, mean of three experiments, read-out: IC50 (50% cell growth inhibitory concentration)
Description: (§1) As a control, cisplatin was tested in the same way.
(§2) A549 (human lung cancer cells), NCI-H460 (human lung cancer cells), MKN45 (human gastric cancer cells), NCI-N87 (human gastric cancer cells), A2780 (human ovarian cancer cells), A2780cis (human ovarian cancer cells, cisplatin-resistant cells) were used as cancer cells, and cultured in Roswell Park Memorial Institute medium (RPMI1640) supplemented with 10 volume % fetal bovine serum and 100 Units/mL penicillin and 100 μg/mL streptomycin under 5 volume % carbon dioxide atmosphere by wet incubation at 37° C.
(§3) Cells were washed with phosphate buffered saline (PBS), the cell count was calculated, and then 5×10^4 cells/ml suspension was prepared using the same medium. The suspension was added to a sterile 96-well microplate at a density of 2500 cells/well.
(§4) Thereafter, viable cell counts were evaluated by WST-8 assay. In other words, a solution of water-soluble tetrazolium salt WST-8 was added, and then the cells were cultured in an incubator for 1 hour. Absorbance at 450 nm of water-soluble formazan generated by enzymatic activity of mitochondria in cells was measured with a microplate reader (Spectra Max PLUS; Molecular Devices). This was evaluated as viable cell counts, and 50% cell growth inhibitory concentration (IC50) was calculated. It should be noted that the mean of the values of three experiments performed in the same way was adopted for the calculation of IC50 value.

[2] = system: NCI-H460 (human lung cancer cells); assay: Anticancer activity, WST-8 viable cell assay, NCI-H460; type: cell-based; conditions: 48 hours culture, mean of three experiments, read-out: IC50 (50% cell growth inhibitory concentration)
Description: as §1, §2, §3, §4

[3] = system: MKN45 (human gastric cancer cells); assay: Anticancer activity, WST-8 viable cell assay, MKN45; type: cell-based; conditions: 48 hours culture, mean of three experiments, read-out: IC50 (50% cell growth inhibitory concentration)
Description: as §1, §2, §3, §4

[4] = system: NCI-N87 (human gastric cancer cells); assay: Anticancer activity, WST-8 viable cell assay, NCI-N87; type: cell-based; conditions: 48 hours culture, mean of three experiments, read-out: IC50 (50% cell growth inhibitory concentration)
Description: as §1, §2, §3, §4

[5] = system: A2780 (human ovarian cancer cells); assay: Anticancer activity, WST-8 viable cell assay, A2780; type: cell-based; conditions: 48 hours culture, mean of three experiments, read-out: IC50 (50% cell growth inhibitory concentration)
Description: as §1, §2, §3, §4

[6] = system: A2780cis (human ovarian cancer cells, cisplatin-resistant cells); assay: Anticancer activity, WST-8 viable cell assay, A2780cis; type: cell-based; conditions: 48 hours culture, mean of three experiments, read-out: IC50 (50% cell growth inhibitory concentration)
Description: as §1, §2, §3, §4

[7] = Solubility test in aqueous surfactant solution (HPLC); conditions: 150 μL surfactant (Tween 80:propylene glycol 2:1) + 850 μL 5% by mass aqueous glucose solution
Description: The solubility was determined by the following HPLC analysis.
For the HPLC analyzer, Prominence HPLC system (LC-20AD, Shimadzu Corporation) was used. For the detector, UV detector SPD-20A (Shimadzu Corporation, detection wavelength 249 nm) was used, and for the column, XR-ODS (3 mm i.d.×100 mm, particle diameter 2.2 μm) manufactured by Shimadzu Corporation was used. The mobile phase was methanol:water:TFA=90:10:0.05 (v/v), the column temperature was 40° C., and the flow rate was 0.5 mL/min.
Each of the weighed samples was placed in 150 μL of surfactants, and the mixture was stirred sufficiently. Then, 850 μL of 5% by mass aqueous glucose solution was added, and the mixture was further stirred at room temperature (25° C.). This solution was passed through a 0.2 μm membrane filter, and the filtrate was diluted 50-fold by volume with methanol:water (9:1) to obtain a preparation solution for HPLC analysis.
The prepared samples were transferred to vials, and set in an autosampler. The analysis was performed by injecting each sample by 1 μL.
Based on the relationship between the weight of the weighed sample and the area of the peak in the obtained chromatogram, the solubility of the phosphine transition metal complex was evaluated.

Molecule	IC50 [1]	IC50 [2]	IC50 [3]	IC50 [4]	IC50 [5]	IC50 [6]	Solubility (25° C.) [7]
N.N.[Cl][Pt][Cl] [Cisplatin, cisplatin, reference compound]	6000 nM	3300 nM	5200 nM	42000 nM	2800 nM	28000 nM	–
CP(c1nc2ccccc2nc1P(C)C(C)(C)C)C(C)(C)C.CP(c1nc2ccccc2nc1P(C)C(C)(C)C)C(C)(C)C.[Au+].[Cl-] (stereo not shown) [Comparative Example 1, bis(2,3-bis(tert-butylmethylphosphino)quinoxaline)gold(I) chloride]	–	–	–	–	–	–	25.5 mg/mL
CP(c1ccccc1P(C)C(C)(C)C)C(C)(C)C.CP(c1ccccc1P(C)C(C)(C)C)C(C)(C)C.[Au+].[Cl-] [Example 2, bis[(S,S)-1,2-bis(t-butylmethylphosphino)benzene]gold(I) chloride]	580 nM	690 nM	530 nM	2100 nM	1100 nM	560 nM	–
bis[(R,R)-1,2-bis(t-butylmethylphosphino)benzene]gold(I) chloride [Example 1]	66 nM	250 nM	250 nM	1400 nM	280 nM	95 nM	–
